“Also recorded” adds a separate entry of the source. Structures can show the parent of a compound that is named as a salt.
How the values were obtained:
[1] = test system: rats; assay: Behavioral safety pharmacology study in rats; format: in vivo; details: rat
Method: In a behavioral study in rats, single SC administration of 10, 25 or 50 mg/kg RE104 HCl induced significant acute, and reversible neuro-pharmacological effects; however, all observations were attributed to exaggerated pharmacologic effects at the serotonin receptor of the test article (i.e., SS). The incidence and duration of observations were dose related.

[2] = test system: male rats; assay: Respiratory function study in male rats; format: in vivo, rat; details: single SC 10, 25, and 50 mg/kg
Method: In a respiratory function study in male rats, at single SC doses of 10, 25, and 50 mg/kg, RE104 HCl produced increases in respiration rate (8-28%) and decreases in tidal volume (28-30%) and minute volume (24-31%). All these changes were transient and returned to pre-dose values by the 6-hour post-dose reading. Based upon the small magnitude and the transient nature of these changes, the changes were not considered adverse.

[3] = test system: conscious telemetered beagle dogs; assay: Cardiovascular study in conscious telemetered beagle dogs; format: in vivo; details: dog
[4] = molecular target: human ether-a-go-go-related gene (hERG) (Homo sapiens, UniProt Q12809); assay: hERG tail current assay; format: cell-based; details: 30 μM as zwitterion (highest concentration tested)
[5] = GLP 14-day extended single SC dose toxicity study in rats; details: female, Sprague Dawley, rat, in vivo, subcutaneous
Method: (§1) In a GLP 14-day extended single SC dose toxicity study in rats, doses of 0 (PBS), 10, 25 and 75 mg/kg were evaluated. Animals were necropsied on Study Day 2 and Day 14 (also referred to as Recovery Day 13) post-dosing.
(§2) A non-GLP dose range study was performed in the dog in order to determine an MTD. Single SC doses of 7.5, 15 and 20 mg/kg were evaluated.

[6] = test system: rats; assay: as above
Method: as §1, §2

[7] = test system: healthy females; assay: Phase 1 FIH single ascending dose study: safety and tolerability (AEs); format: in vivo, human
Method: (§3) The study was a double-blind, randomized, placebo-controlled Phase 1 single ascending dose study in up to 6 cohorts in healthy females. Eligibility was assessed during a screening period of up to 28 days prior to enrollment. For the treatment period, subjects were admitted to the clinical research unit (CRU) one day prior to the dosing (Day −1). On Day 1, all subjects will received the assigned SC dose of RE104 HCl or placebo in a fed state (after domiciling overnight and consuming a planned evening meal on Day −1 and morning meal on Day 1 while at the CRU). Subjects were allowed to select snacks from a planned menu from 4 hours following dosing. Subjects were discharged from the clinic on Day 2 (−24 hours post-dose) after all required study procedures were completed and if deemed medically fit. Subjects returned to the clinic on Day 10 (±2 days) for a follow up visit.
Six (6) cohorts were enrolled in the study. Six (6) single doses were tested in 6 cohorts (Cohort 1 to Cohort 6) of 8 healthy female subjects (6 active and 2 placebo), as indicated in FIG. 1 and Table 3.
The starting dose was 5.5 mg RE104 HCl. Sentinels were used in all cohorts. Within each cohort, 2 subjects were treated first: 1 subject received RE104 HCl and 1 subject received placebo.
The study was monitored by a safety review committee (SRC). […] Safety, tolerability, and available PK data were assessed by the SRC between each cohort before ascending to the next dose level (Table 3). After each cohort dosing was complete, the SRC met to discuss dose escalation. Escalation to the next higher dose level occurred only after evaluation of the safety and tolerability data up to and including at least 24 hours post-dose of all evaluable subjects in the previous dose cohort. Available PK results were requested for determination of dose escalation, as deemed necessary.
Dosing took place at a time point agreed to with the investigational pharmacy and acceptable to the investigator. RE104 HCl or placebo were administered as a SC injection in the upper arm. Subjects received RE104 HCl or placebo in a fed state. The time of administration of RE104 HCl or placebo was be recorded in the eCRF. The regimen used is outlined in Table 3.
Within each cohort, 2 sentinel subjects were treated first: 1 subject received RE104 HCl and 1 subject received placebo. […] All drug administration was be done under direct medical supervision. Study subjects were overseen during the potentially psychoactive study drug period by professionals trained to monitor psychedelic experiences.

[8] = test system: healthy females; assay: Phase 1 FIH study: modified Drug Effect Questionnaire (DEQ-High); format: in vivo, human
Method: as §3
The Drug Effect Questionnaire (DEQ) Feel/High is widely used in studies of acute subjective response to a variety of substances, to assess two key aspects of subjective experience: (1) the strength of substance effects and (2) desirability of substance effects (Morean et al., 2013). The modified DEQ assesses the extent to which subjects (1) feel any substance effect(s) and (2) feel high. This version of the DEQ includes the following items: “Do you feel a drug effect right now?” (FEEL); “Are you high right now?” (HIGH). FIG. 2 sets out the modified DEQ that was used.
The modified DEQ was used as an 11-point numeric rating scale (0-10) administered by a qualified staff member. The subjects were asked to verbally respond to indicate how strongly they feel the drug effect and how high they feel on the scale of 0-10 after being administered the study drug (Kollltveit et al., 2020).

[9] = test system: healthy females; assay: Phase 1 FIH study: Mystical Experience Questionnaire (MEQ30); format: in vivo, human; details: 33 mg
Method: as §3
The Mystical Experience Questionnaire (MEQ30) is a validated questionnaire that assesses individual episodes of a mystical experience produced by classic hallucinogens (Barrett et al. 2015). The validated MEQ30 uses thirty questions across 4 areas of experience: (i) Mystical (including items concerning internal unity, external unity, noetic quality, and sacredness); (ii) Positive mood; (iii) Transcendence of time and space; and (iv) Ineffability. The subjects will be asked to rate each item of the MEQ30 on a 6-point scale. FIG. 3 sets out the revised MEQ30 that was used.

[10] = Prodrug cleavage in human plasma; format: in vitro ADME; details: human plasma (data not shown)
Method: Mean values from 3 replicate assays are reported. See the Supplemental Methods for additional details.
Triplicate aliquots (50 μL) of each spiked plasma solution were immediately added to 200 μL of ice-cold methanol/acetonitrile solution (50:50 v/v) containing the internal standards to generate time zero samples. Spiked plasma solutions were incubated at 37° C. in an orbital shaker set to 75 rpm, and 50-μL samples were taken in triplicate after 30 minutes and 1, 2, and 4 hours of incubation. Each sample was immediately added to 200 μL ofice-cold methanol/acetonitrile solution containing the internal standard(s) to terminate the reaction. Samples were mixed by vortex and then stored at −80° C. until analysis.
Calibration standards were prepared in plasma for each species and analyzed in batches by LC-MS/MS. Sample batches consisted of 3 replicates of a system suitability standard (containing the analyte and internal standard), the appropriate calibration standards in ascending order including a blank sample without internal standard, a zero sample (with internal standard), and at least 6 nonzero standards and the assay samples, followed by the 3 replicates of the system suitability sample.

[11] = test system: male Wistar rats; assay: Forced swim test (FST) in rats; format: in vivo, rat
[12] = Metabolite profiling in monkey plasma after SC RE104; format: in vivo, cynomolgus monkey; details: pooled plasma 0 to 12 hours post dose, SC 0.5 mg/kg RE104
Description: Blood samples were centrifuged to obtain plasma.

[13] = rat, oral Gymnopilus spectabilis (Chen et al.); cited from earlier work
[14] = in vivo; cited from earlier work
[15] = test system: humans; details: humans; cited from earlier work

Sequence of human ether-a-go-go-related gene (hERG) (Q12809 whole entry): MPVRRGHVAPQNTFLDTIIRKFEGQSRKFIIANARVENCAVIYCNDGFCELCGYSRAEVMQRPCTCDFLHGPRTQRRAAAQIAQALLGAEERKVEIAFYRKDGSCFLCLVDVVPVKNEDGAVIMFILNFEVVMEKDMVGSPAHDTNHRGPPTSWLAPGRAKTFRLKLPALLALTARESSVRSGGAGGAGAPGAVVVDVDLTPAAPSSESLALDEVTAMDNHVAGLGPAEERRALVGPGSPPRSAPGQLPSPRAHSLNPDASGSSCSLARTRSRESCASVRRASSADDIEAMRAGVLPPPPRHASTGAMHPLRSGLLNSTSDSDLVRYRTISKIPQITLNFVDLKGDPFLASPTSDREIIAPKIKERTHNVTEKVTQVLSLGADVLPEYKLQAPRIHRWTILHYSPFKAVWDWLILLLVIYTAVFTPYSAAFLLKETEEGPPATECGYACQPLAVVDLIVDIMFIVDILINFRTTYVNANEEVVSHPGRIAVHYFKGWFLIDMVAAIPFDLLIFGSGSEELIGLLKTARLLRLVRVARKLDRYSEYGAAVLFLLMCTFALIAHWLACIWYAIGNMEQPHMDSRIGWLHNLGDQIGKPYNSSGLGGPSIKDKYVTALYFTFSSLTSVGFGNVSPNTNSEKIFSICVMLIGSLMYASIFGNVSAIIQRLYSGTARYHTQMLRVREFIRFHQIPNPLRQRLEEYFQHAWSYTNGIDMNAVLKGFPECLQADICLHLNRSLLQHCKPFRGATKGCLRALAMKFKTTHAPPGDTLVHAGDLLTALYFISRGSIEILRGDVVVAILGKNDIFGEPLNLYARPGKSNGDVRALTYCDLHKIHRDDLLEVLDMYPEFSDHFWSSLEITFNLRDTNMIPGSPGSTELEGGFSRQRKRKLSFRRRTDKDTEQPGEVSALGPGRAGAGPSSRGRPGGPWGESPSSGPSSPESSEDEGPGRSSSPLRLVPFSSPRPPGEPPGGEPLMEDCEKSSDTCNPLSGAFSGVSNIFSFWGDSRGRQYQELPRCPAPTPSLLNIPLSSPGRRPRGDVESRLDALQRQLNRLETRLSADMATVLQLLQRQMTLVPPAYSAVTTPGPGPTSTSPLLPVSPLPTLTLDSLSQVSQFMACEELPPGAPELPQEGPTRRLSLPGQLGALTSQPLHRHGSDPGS

## CC(C)N(CCc1c[nH]c2cccc(OC(=O)CCCC(=O)O)c12)C(C)C [RE104 HCl, 4-Glutaroyl-3-(2-diisopropylaminoethyl)-1H-indole hydrochloride]
[1]; single SC 10 mg/kg
  time of neuro-pharmacological effects: effects were observed at 30 minutes (min) to 1 hour (h)
[1]; single SC 25 mg/kg
  time of neuro-pharmacological effects: effects were observed to 6 h
[1]; single SC 50 mg/kg
  time of neuro-pharmacological effects: effects were noted through 6 h post-dose but were resolved by 24 h
[2]
  decreases in minute volume: 24-31%
  decreases in tidal volume: 28-30%
  increases in respiration rate: 8-28%
[3]; SC 1, 3 or 8 mg/kg
  effects on cardiac rhythm, ECG parameters or body temperature: No significant biologically relevant effects
[3]; SC 3 and 8 mg/kg
  effect on heart rate and blood pressure: Transient increases in heart rate and blood pressure
[3]; single SC 1 mg/kg
  effect on heart rate and blood pressure: small transient increase in heart rate but had no effect on blood pressure
[4]
  decrease in hERG current amplitude: 5.9 ± 1.6%
[5]
  NOAEL at 14 days: 10 mg/kg
[6]; Cohort 1, 5.5 mg RE104 HCl
  Fold Lower than Scaled NOAEL Dose: 19
[6]; Cohort 2, 11 mg RE104 HCl
  Fold Lower than Scaled NOAEL Dose: 9.7
[6]; Cohort 3, 22 mg RE104 HCl
  Fold Lower than Scaled NOAEL Dose: 4.9
[6]; Cohort 4, 33 mg RE104 HCl
  Fold Lower than Scaled NOAEL Dose: 3.2
[6]; from rat NOAEL, 10-fold safety margin
  MRSD: 9.7 mg
[7]; SC injection in the upper arm
  injection site adverse reactions: No injection site adverse reactions were reported
[7]; doses up to and including 44 mg
  serious AEs: no serious AEs
[7]; doses up to and including 44 mg, hydrochloride
  blood pressure, vital sign, clinical laboratory, electrocardiogram findings: no evident blood pressure effects; also recorded: no clinically significant vital sign, clinical laboratory, or electrocardiogram findings
[8]; 33 mg
  reduction of psychoactive experience relative to historical evidence with psilocybin: 50%
[8]; 33 mg SC
  time of peak activity: approx 1 h
[9]
  MEQ total score and domain scores: ≥ 60%

## CN(C)CCc1c[nH]c2cccc(OC(=O)CCCC(=O)O)c12.Cl [RE109, psilocin-4-glutarate, reference compound]
[10]
  cleavage to psilocin: rapid cleavage to psilocin
[11]; rat FST, day 28
  climbing as share of escape behaviors: 26%
  swimming as share of escape behaviors: 74%
[11]; rat FST, single 1 mg/kg dose
  mean swimming time relative to vehicle: significantly increased
[11]; rat FST, single 1 mg/kg dose, day 14 and 28
  mean immobility time vs vehicle: significant decrease
[11]; rat, dosing day, 1 mg/kg
  duration of distinctive serotonergic behaviors: approximately 3 hours

## CC(C)N(CCc1c[nH]c2cccc(OC3OC(C(=O)O)C(O)C(O)C3O)c12)C(C)C (stereo not drawn) [glucuronidation of 4-OH-DiPT]
[12]
  share of the total peak area: 24.5%

## CN(C)CCc1c[nH]c2cccc(O)c12 [psilocin]
[13]
  distribution half-life: 1.95 h
  elimination half-life: 2.47 h
[14]
  oral bioavailability in man: approximately 53%

## CN(C)CCc1c[nH]c2cccc(OP(=O)(O)O)c12 [psilocybin]
[15]
  duration of psychedelic state / effects: 6 to 8 h
